From publication PMC12040169 (PLOS Biology, 2025) come the findings set out here.

A word on the viability: it is a read-out of living cells in per cent, often relative to untreated cells.

Structures are written as SMILES.

One data set in a line: in vitro. To be noted: human, hela cells, % viability.
In the case of `COCCCNC(NC(=O)c1ccc(C)cc1)C(Cl)(Cl)Cl` (stereo not drawn) [CBK263087], the viability at 28.5 h, 10 µM was found to be 107%.

With `CC(C)[C@@H](CO)Nc1nc(-c2cccc(Br)c2)cnc1N` [CBK063758], the viability at 28.5 h, 10 µM was found to be 99.5%.

On to `COCCC1CN(c2nc(N(C)C)nc3c2CCN(C(C)=O)C3)CCO1` (stereo not drawn) [CBK307464], for which the viability at 28.5 h, 10 µM came to 82.2%.

On to `CC(C)(C)OC(=O)N1CCCC(C(=O)NCCc2ccccn2)C1` (stereo not drawn) [CBK304281], for which the viability at 28.5 h, 10 µM came out at 86.5%.

With `Cc1nn(-c2ccccc2)c2[nH]c(=O)c(CNC3CCC3)cc12` [CBK282897], the viability at 28.5 h, 10 µM is 103%.

On to `CCCc1nc(NC(CCO)c2ccc(C)cc2)c2cnn(C)c2n1` (stereo not drawn) [CBK307309], for which the viability at 28.5 h, 10 µM was found to be 85.3%.

For the molecule `c1cnc2[nH]c(C3CC3)c(CN3CCN4CCCCC4C3)c2c1` (stereo not drawn) [CBK285313], the viability at 28.5 h, 10 µM is 81.5%.

Take `CCOc1ccc(N)cc1S(N)(=O)=O` [CBK010112]: the viability at 28.5 h, 10 µM amounted to 93.2%.

`COc1ccc(C=C2CCCC3C2=NN(C(=O)CCC(=O)O)C3c2ccc(OC)c(OC)c2)cc1OC` (stereo not drawn) [CBK296070]: the viability at 28.5 h, 10 µM amounted to 107%.

For the molecule `NNC(=O)c1cc(-c2ccccc2)nc2ccc(Br)cc12` [CBK261762], the viability at 28.5 h, 10 µM is 102%.

Consider `CC1(C)OC(=O)CC1C(=O)N1CCCC(COc2ccccc2F)C1` (stereo not drawn) [CBK282098], for which the viability at 28.5 h, 10 µM came to 100%.

`CCC(C)(C)C1CCC(NC(=O)CSCCC(=O)O)CC1` (stereo not drawn) [CBK296674]: the viability at 28.5 h, 10 µM amounted to 107%.

Turning to `CC(C)(C)OC(=O)N1CCC(N(CCC(F)(F)F)Cc2ccc(-c3ccc(S(C)(=O)=O)cc3)nc2)CC1` [CBK167262], the viability at 28.5 h, 10 µM stood at 81%.

For `Cc1ccsc1CN(Cc1cncn1C)CC(C)O` (stereo not drawn) [CBK283033], the viability at 28.5 h, 10 µM was 85.7%.

For the molecule `Cc1nc2c(c(=O)[nH]1)CC[C@@H]1CN(C(=O)c3cc(F)cc(F)c3)C[C@H]21` [CBK284418], the viability at 28.5 h, 10 µM amounted to 101%.

Consider `COc1ccc(C2C(C(=O)Nc3ccc(C)cc3)=C(C)Nc3ncnn32)cc1OC` (stereo not drawn) [CBK294416], for which the viability at 28.5 h, 10 µM was determined as 90.9%.

With `Nn1c(-c2cccs2)nc2ccccc2c1=O` [CBK003650], the viability at 28.5 h, 10 µM was determined as 99.2%.

For `COc1ccc(CNC(=O)[C@H]2C=CCN2C(=O)C2CC2)cc1` [CBK282326], the viability at 28.5 h, 10 µM stood at 109%.

Regarding `O=C1CSC2(C(=O)Nc3ccccc32)N1c1ccc2ccccc2c1` (stereo not drawn) [CBK093461], the viability at 28.5 h, 10 µM amounted to 106%.

Regarding `CC(C)C1c2cccn2CCN1S(=O)(=O)c1ccc2[nH]c(=O)[nH]c(=O)c2c1` (stereo not drawn) [CBK286391], the viability at 28.5 h, 10 µM was determined as 99.6%.

As to `C=C(C)CNC(=O)c1ccc(C)nc1N1CCN(C(=O)c2ccco2)CC1` [CBK076401], the viability at 28.5 h, 10 µM is 94.8%.

`CSc1nc(Cl)c(-c2ccccc2)c(N(C)C)n1` [CBK023169]: the viability at 28.5 h, 10 µM was 96.9%.

On to `O=[N+]([O-])c1ccc(CN2CCN(c3nccnc3Oc3ccc(F)cc3)CC2)cc1` [CBK083015T], for which the viability at 28.5 h, 10 µM was 92.2%.

Consider `CCc1nc(-c2ccc(N(C)C)nc2)n(C)n1` [CBK306897], for which the viability at 28.5 h, 10 µM is 90.6%.

Consider `COc1ccc(NCc2cc(=O)oc3cc4c(cc23)CCC4)cn1` [CBK235362], for which the viability at 28.5 h, 10 µM amounted to 88%.

Regarding `CCCCN(CC(F)(F)F)C(=O)Cc1csc(NC(=O)C(C)C)n1` [CBK306217], the viability at 28.5 h, 10 µM is 99.5%.

Regarding `CC(=O)NCC1CCC2(CCN(c3nc(C)nc(C)c3C)CC2)O1` (stereo not drawn) [CBK307404], the viability at 28.5 h, 10 µM is 94.1%.

Regarding `C[C@@H](Cn1c(C(F)(F)F)cc2cccnc21)NC(=O)C1CCC1` [CBK283230], the viability at 28.5 h, 10 µM stood at 109%.

For `CCOc1cc(/C=C2\S/C(=N/c3ccc(S(N)(=O)=O)cc3)NC2=O)c(Br)cc1O` [CBK265622], the viability at 28.5 h, 10 µM is 95%.

In the case of `O=C(CC(=O)Nc1c(Cl)cccc1C(F)(F)F)Nc1c(Cl)cccc1C(F)(F)F` [CBK263148], the viability at 28.5 h, 10 µM stood at 103%.

Turning to `CN(C)CCN(C)c1ccc(-c2cc3ccccc3o2)cn1` [CBK036820], the viability at 28.5 h, 10 µM was determined as 107%.

For the molecule `COc1ccc(-c2ncc(Oc3cccc(NC(C)=O)c3)nc2N)c(OC)c1` [CBK145087], the viability at 28.5 h, 10 µM was determined as 113%.

Regarding `CN1CCN(C(=O)c2ccc(-c3ccccc3)nc2N(C)C)CC1` [CBK106115], the viability at 28.5 h, 10 µM stood at 84.4%.

`CN(C)/C=N/c1nc2c(nc(Br)n2C2CC(O)C(CO)O2)c(=O)[nH]1` (stereo not drawn) [CBK201319]: the viability at 28.5 h, 10 µM came to 84.7%.

Take `Cc1c(C(C)NCC(C)(C)N(C)C)cnn1-c1ccc(C#N)cc1` (stereo not drawn) [CBK306447]: the viability at 28.5 h, 10 µM amounted to 87.7%.

With `C=Cn1cc(CN2CCCN(Cc3cccc(F)c3)CC2)c(C)n1` [CBK282594], the viability at 28.5 h, 10 µM worked out at 98.7%.

Take `O=C(Nc1ccccc1[N+](=O)[O-])c1cc(S(=O)(=O)NCc2ccccc2)c(Cl)cc1Cl` [CBK263240]: the viability at 28.5 h, 10 µM turned out to be 91.5%.

`Cc1nonc1CC(=O)NC1(c2ccc(F)cc2)CCCC1` [CBK283613]: the viability at 28.5 h, 10 µM turned out to be 93.2%.

Regarding `COc1ccc(C(c2ccccc2C)N(C)C(=O)C2CCNCC2)cn1` (stereo not drawn) [CBK074124], the viability at 28.5 h, 10 µM was found to be 100%.

Turning to `O=C(CN1C(=O)CCC1=O)Nc1nc2ccccc2s1` [CBK287345], the viability at 28.5 h, 10 µM came out at 97.7%.

Turning to `CCN1CCCCC1CNC(=O)c1n[nH]c2c1CCC2` (stereo not drawn) [CBK282207], the viability at 28.5 h, 10 µM came to 96.2%.

As to `C=CCOc1ccc(Cl)cc1C(=O)NCc1c(C)n[nH]c1C` [CBK282587], the viability at 28.5 h, 10 µM came to 82.6%.

For `O=C(CSc1nnc(-c2ccncc2)o1)c1ccccc1` [CBK070562], the viability at 28.5 h, 10 µM came to 87.5%.

On to `Cc1ccc(Cn2nnc3c(O)nc(C4CCN(C(=O)CC(C)(C)C)CC4)nc32)cc1` [CBK293970], for which the viability at 28.5 h, 10 µM amounted to 91.2%.

Consider `O=C(Cn1cccnc1=O)NC(c1ccc2c(c1)CCO2)C1CC(O)C1` (stereo not drawn) [CBK306595], for which the viability at 28.5 h, 10 µM is 75.3%.

Regarding `O=C(Cc1cc(Cl)ccc1C(F)(F)F)NCCc1c[nH]c2ccc(Cl)cc12` [CBK159759], the viability at 28.5 h, 10 µM came to 80.2%.

Turning to `CN1CCC(N(C)C(=O)Nc2ccc3[nH]ccc3c2)C1` (stereo not drawn) [CBK156006], the viability at 28.5 h, 10 µM was 92.2%.

As to `CCN(CC)CCC(=O)c1ccc(Cl)cc1` [CBK015906C], the viability at 28.5 h, 10 µM was 101%.

Regarding `CN1CCN([C@H]2[C@@H]3OC[C@@H](O3)[C@@H](NCc3ccc(N(C)C)cc3)[C@@H]2O)CC1` [CBK288824], the viability at 28.5 h, 10 µM turned out to be 109%.

With `CCc1c(C(=O)NCc2cc(C3CC3)[nH]n2)[nH]c2ccc(F)cc12` [CBK282501], the viability at 28.5 h, 10 µM was determined as 76.3%.

As to `CCCCC(O)(Cc1onc(-c2ccccc2)c1C(=O)N(C)C)c1ccc(CN2CCCC2)cc1` (stereo not drawn) [CBK034415T], the viability at 28.5 h, 10 µM stood at 113%.

Take `Cc1ccc(NC(=O)CCC(=O)N/N=C/c2ccco2)c(C)c1` [CBK263885]: the viability at 28.5 h, 10 µM worked out at 96.4%.

Consider `O=C(CSc1ccc(Cl)cc1)Nc1cccc2nsnc12` [CBK267936], for which the viability at 28.5 h, 10 µM was determined as 90.8%.

As for `Cc1noc(C)c1C(=O)N1CC[C@H]2NC(=O)c3ccccc3OCC/C=C/C[C@H]2C1` [CBK291994], the viability at 28.5 h, 10 µM came out at 100%.

As for `CCCN1C(C)=NS(=O)(=O)c2cc(C(=O)O)ccc21` [CBK287251], the viability at 28.5 h, 10 µM stood at 92.4%.

Consider `Cc1c(C(=O)N(C)C2CCNCC2)nnn1-c1ccc2ncccc2c1` [CBK306500C], for which the viability at 28.5 h, 10 µM came out at 84.8%.

For `O=C(Nc1nnc(-c2ccco2)o1)C(c1ccccc1)c1ccccc1` [CBK287424], the viability at 28.5 h, 10 µM was 91.9%.

For the molecule `O=S(=O)(NC[C@H]1C[C@@H]2CC[N@]1C[C@@H]2CN1CCOCC1)c1cccs1` [CBK288759], the viability at 28.5 h, 10 µM stood at 90.7%.

In the case of `Cc1ccc(S(=O)(=O)N(CC(=O)NCc2ccco2)c2cccc(C)c2)cc1` [CBK264125], the viability at 28.5 h, 10 µM came out at 93.9%.

Regarding `O=C(NCCCN1CCOCC1)c1ccc(/C=N/O)nc1` [CBK264468], the viability at 28.5 h, 10 µM was found to be 107%.

In the case of `O=c1c2snc(-c3ccc(F)cc3)c2ncn1C1CC1` [CBK282859], the viability at 28.5 h, 10 µM stood at 76.9%.

Consider `COc1ccc2c(c1)OC1(CCN(C(=O)c3cc(OC)c(C)c(OC)c3)CC1)NC2=O` [CBK166244], for which the viability at 28.5 h, 10 µM is 82.6%.

Consider `CC(=O)NCC(=O)N1CCC[C@@H]2[C@H]1CCCCc1ccccc1OCC(=O)N2C` [CBK292011], for which the viability at 28.5 h, 10 µM stood at 117%.

For the molecule `O=C(CSc1nc(-c2ccccc2)cc(-c2ccccc2)n1)Nc1cccc([N+](=O)[O-])c1` [CBK263896], the viability at 28.5 h, 10 µM was 97.9%.

For `CCOC(=O)N1CCC(NC(=O)N2CCC(C(=O)O)CC2)CC1` [CBK156080], the viability at 28.5 h, 10 µM was 95.2%.

Regarding `O=C(c1ccnc2ccccc12)N1CCc2ccccc21` [CBK200283], the viability at 28.5 h, 10 µM came to 103%.

For the molecule `COc1ccc(S(=O)(=O)N(CC(=O)N2CCc3ccccc3C2)C2CCCCC2)cc1Cl` [CBK268525], the viability at 28.5 h, 10 µM is 97.9%.

Turning to `C=CCn1c(Cc2csc(NC(=O)c3cnc(C)cn3)n2)n[nH]c1=S` [CBK295319], the viability at 28.5 h, 10 µM stood at 90.4%.

On to `COc1cc(-c2nnc(SCC(=O)O)n2-c2ccccc2)cc(OC)c1OC` [CBK131695], for which the viability at 28.5 h, 10 µM turned out to be 104%.

Take `CCCn1c(CN2CCOCC2)nc2c1c(=O)n(C)c(=O)n2C` [CBK305911]: the viability at 28.5 h, 10 µM stood at 103%.

In the case of `CCCC(=O)Nc1cccc(NC(=O)c2nc[nH]n2)c1` [CBK269604], the viability at 28.5 h, 10 µM came out at 104%.

With `O=C(COc1ccc(S(=O)(=O)NC2CCCCC2)cc1)Nc1cccc2ccccc12` [CBK266023], the viability at 28.5 h, 10 µM amounted to 100%.

In the case of `CCCn1c(SCC(=O)Nc2scc(CC(C)C)c2C(=O)OCC)n[nH]c1=O` [CBK295615], the viability at 28.5 h, 10 µM worked out at 98.1%.

Turning to `COc1ccc(-c2nc(NC(=O)Cc3ccccc3OC)cnc2-c2cccc(C)c2)cn1` [CBK036839], the viability at 28.5 h, 10 µM was 111%.

Turning to `CCOC(=O)c1sc(C)c(C(N)=O)c1/N=C1\CCCN1` [CBK020893], the viability at 28.5 h, 10 µM came out at 105%.

Still in this data set, the particulars now being: human, hela cells, % viability, bulk resorufin, single well.
As for `CCOC(=O)C1(c2ccccc2)CCN(CC(=O)Nc2ccc(C(=O)OC)cc2)CC1` [CBK020942], the viability at 28.5 h, 10 µM is 92.9%.

As to `O=C(O)CCC(=O)OC1N=C(c2ccccc2Cl)c2cc(Br)ccc2NC1=O` (stereo not drawn) [CBK263076], the viability at 28.5 h, 10 µM stood at 85.2%.

As for `O=C1NC(=O)C(=Cc2ccc([N+](=O)[O-])o2)C(=O)N1` [CBK017848], the viability at 28.5 h, 10 µM was 106%.
